Assay results as given in patent publication US20150290105A1, “COMPOSITION COMPRISING SYRINGARESINOL FOR IMPROVING THE SKIN” (AMOREPACIFIC CORPORATION, priority 2011, published 2015).
Each block holds one compound with its values, some of them ahead of it.

How the values were obtained:
[1] = test system: Melanocytes (Mel-Ab cells); test: Melanin production inhibiting effect in mouse melanocytes; format: cell-based; details: Mus musculus, Mel-Ab; read-out: Melanin production inhibiting rate (%)
Experimental: The melanin production inhibiting effect of the syringaresinol obtained in Example was evaluated using mouse melanocytes. First, melanocytes (Mel-Ab cells) derived from C57BL/6 (treated with Dooley et al.'s method) were cultured under the condition of 37° C. and 5% CO2 in Dulbecco's modified Eagle's medium (DMEM) containing 10% fetal bovine serum, 100 nM 12-O-tetradecanoylphorbol-13-acetate and 1 nM cholera toxin. […] After removing the culture medium and washing with PBS, the cells were dissolved with 1 N sodium hydroxide and absorbance was measured at 400 nm. Melanin production inhibiting rate (%) was calculated according to Equation 2 from the measured absorbance. Melanin production inhibiting rate (%)=100−(Absorbance of test substance) /(Absorbance of control substance)×100 [Equation 2]

[2] = Skin whitening effect when applied to UVB-tanned human skin; format: in vivo; details: 1% applied on upper arm after UVB, 10 weeks, 12 male subjects
Experimental: First, opaque tapes having holes of 1.5 cm in diameter were attached on the upper arms of 12 healthy male subjects and UVB of about 1.5-2 times the minimal erythemal dose was irradiated to each subject to induce skin tanning. […] Then, the change was monitored for 10 weeks. The color of the skin was measured with 1-week interval using the CR2002 colorimeter (Minolta, Japan). The change in skin color (ΔL*) between the time when the test substance was applied and the time when the test was completed was calculated according to Equation 3. Skin whitening effect is evaluated by comparing the ΔL* of the part where the test substance was applied with that of the control part. A ΔL* value of about 2 can be interpreted as distinct skin whitening effect and one about 1.5 can be evaluated as positive skin whitening effect.
ΔL*=(L* when test was completed)−(L* when test substance was applied) [Equation 3]

[3] = test system: mushroom-derived tyrosinase; test: Tyrosinase activity inhibiting effect (dopachrome formation); format: biochemical; details: 10 ppm, 37° C. 10 minutes
Experimental: The reaction solution was prepared by adding 500 μL of 0.1 M PBS, 15 μg of L-tyrosine and 50 μL of syringaresinol and then adding distilled water to make the final volume 1500 μL. A solution prepared through the same procedure but with Kojic acid instead of syringaresinol was used as a positive control. The concentration of all the samples used in experiment was set to 10 ppm. After adding 10 units of mushroom-derived tyrosinase to the reaction solution, followed by reaction at 37° C. for 10 minutes, the reaction was stopped by quickly transferring onto ice for 5 minutes. The synthesis rate of dopachrome produced was determined by measuring absorbance at 475 nm and tyrosinase activity inhibiting rate (%) was calculated therefrom.

[4] = Skin whitening effect when orally administered, UV-irradiated brown guinea pig; format: in vivo; details: 1% in feed, 5 weeks, oral
Experimental: Minimal erythemal dose was measured after irradiating UV to guinea pigs. After grouping the guinea pigs with 10 per each group, UV of the minimal erythemal dose was irradiated once a day, for a total of 3 times. The guinea pigs were allowed free access to feed for 5 weeks. The feed contained 1% syringaresinol or 1% vitamin C (Vit C) as a positive control. Skin pigmentation was measure using a colorimeter in substantially the same manner as in Test Example 6.

Compound: Oc1ccc(O)cc1 [Hydroquinone, hydroquinone, reference compound]
inhibition at 10 ppm [1]: 58.9%
Change in skin brightness (ΔL*) [2]: 1.71 ± 0.31

Tyrosinase activity inhibiting rate (%) [3]: 67.8%
Compound: O=c1cc(CO)occ1O [Kojic acid, reference compound]

Compound: O=C1O[C@H]([C@@H](O)CO)C(O)=C1O [Vitamin C, vitamin C, reference compound]
Skin color brightness (ΔL*) [4]: 1.48 ± 0.71
